From article PMC3814719, “Structure of a bacterial putative acetyltransferase defines the fold of the human O-GlcNAcase C-terminal domain” (Open Biology, 2013) come the findings set out here.

This experiment deals with T1, OgpAT (Oceanicola granulosus, UniProt Q2CEE2).
T1 construct: gene OG2516_04134; full-length OgpAT, expressed as GST fusion from pGEX-6P-1 in E. coli BL21(DE3) pLysS, GST cut off with PreScission protease; 206 residues in crystal; monomer; biotinylated for SPR; gene immediately downstream of OgOGA
In words: surface plasmon resonance, biotinylated protein on streptavidin chip, […] equilibrium fit. The settings on record: read-out: OgpAT, wt. The format is binding. On the technique in general: SPR reads the build-up and loss of mass on a sensor chip optically.

T1 sequence (Q2CEE2 whole entry, the tested form may be a part): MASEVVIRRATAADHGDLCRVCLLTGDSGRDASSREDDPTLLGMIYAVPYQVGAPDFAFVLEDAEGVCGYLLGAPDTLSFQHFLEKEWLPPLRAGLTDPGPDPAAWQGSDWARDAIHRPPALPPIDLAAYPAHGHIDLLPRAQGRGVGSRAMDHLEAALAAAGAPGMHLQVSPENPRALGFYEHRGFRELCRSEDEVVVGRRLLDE

In the case of `CC(=O)SCCNC(=O)CCNC(=O)[C@H](O)C(C)(C)COP(=O)(O)OP(=O)(O)OC[C@H]1O[C@@H](n2cnc3c(N)ncnc32)[C@H](O)[C@@H]1OP(=O)(O)O` [AcCoA], the Kd stood at 8.3 µM.
